ChEMBL document CHEMBL1130390, “Design and synthesis of novel imidazole-substituted dipeptide amides as potent and selective inhibitors of Candida albicans myristoylCoA:protein N-myristoyltransferase and identification of related tripeptide inhibitors with mechanism-based antifungal activity” (J Med Chem, 1997)

Tests used:
[1] = target: Peptide N-myristoyltransferase (Candida albicans)
[2] = target: T1, Peptide N-myristoyltransferase (Homo sapiens, UniProt P30419+O60551); assay: Inhibition activity against N-myristoyltransferase (NMT) of human.; type: protein assay
T1 sequence (P30419 whole entry): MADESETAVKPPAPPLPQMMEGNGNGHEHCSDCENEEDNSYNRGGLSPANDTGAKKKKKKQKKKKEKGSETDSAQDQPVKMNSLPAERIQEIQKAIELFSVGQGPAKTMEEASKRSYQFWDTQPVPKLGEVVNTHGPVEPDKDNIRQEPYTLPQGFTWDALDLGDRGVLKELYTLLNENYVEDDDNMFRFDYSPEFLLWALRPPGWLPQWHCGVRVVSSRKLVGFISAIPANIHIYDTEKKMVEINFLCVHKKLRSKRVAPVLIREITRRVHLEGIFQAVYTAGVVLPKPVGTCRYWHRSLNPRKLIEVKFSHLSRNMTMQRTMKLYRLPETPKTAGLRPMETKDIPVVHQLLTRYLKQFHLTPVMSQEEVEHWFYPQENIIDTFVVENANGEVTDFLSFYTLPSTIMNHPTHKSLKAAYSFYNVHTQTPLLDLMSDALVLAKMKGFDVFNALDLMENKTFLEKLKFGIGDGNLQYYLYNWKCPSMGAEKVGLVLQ
T1 sequence (O60551 whole entry): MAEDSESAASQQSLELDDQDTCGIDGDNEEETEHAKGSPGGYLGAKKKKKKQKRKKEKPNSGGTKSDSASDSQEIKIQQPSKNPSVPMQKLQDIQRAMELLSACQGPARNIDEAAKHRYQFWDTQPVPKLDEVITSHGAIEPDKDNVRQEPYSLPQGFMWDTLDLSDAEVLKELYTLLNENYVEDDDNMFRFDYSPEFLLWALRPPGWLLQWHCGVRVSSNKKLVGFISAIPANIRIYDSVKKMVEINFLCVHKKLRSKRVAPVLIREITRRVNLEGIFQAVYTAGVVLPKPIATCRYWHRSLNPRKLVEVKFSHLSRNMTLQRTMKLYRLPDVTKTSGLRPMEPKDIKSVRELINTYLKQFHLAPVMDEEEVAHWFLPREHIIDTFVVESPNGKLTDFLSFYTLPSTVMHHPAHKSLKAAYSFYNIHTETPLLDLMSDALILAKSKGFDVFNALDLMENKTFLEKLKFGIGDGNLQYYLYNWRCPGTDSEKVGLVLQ

Candida albicans [3] = assay: Growth inhibitory activity against candida albicans.; type: functional, organism-based
Cryptococcus neoformans = assay: Growth inhibitory activity against Cryptococcus neoformans.; type: functional, organism-based
Candida albicans [4] = assay: tested to obtain the effective concentration to inhibit candida albicans.; type: functional, organism-based

Row | IC50 [1] [µM] | IC50 [2] [µM] | EC50 (Candida albicans [4]) [µM] | SMILES | EC50 (Candida albicans [3]) [µM] | EC50 (Cryptococcus neoformans) [µM]
1 | 0.31 | – | – | NCCCC[C@H](NC(=O)[C@H](CO)NC(=O)Cc1ccc(CCCCn2ccnc2)cc1)C(=O)NCCC1CCCCC1 | – | –
2 | 0.86 | 119.5 | – | Cc1nc2ccccc2n1CCCCc1ccc(C(C)C(=O)N[C@@H](CO)C(=O)N[C@@H](CCCCN)C(=O)NCCC2CCCCC2)cc1 (stereo not given in full) | – | –
3 | 1.45 | 809.5 | – | Cc1nccn1CCCCc1ccc(CC(=O)N[C@@H](CO)C(=O)N[C@@H](CCCCN)C(=O)N[C@@H](CC2CCCCC2)C(=O)O)cc1 | 51 | > 100
4 | 1.88 | – | – | NCCCC[C@H](NC(=O)[C@H](CO)NC(=O)Cc1ccc(CCCCn2ccnc2I)cc1)C(=O)NCCC1CCCCC1 | – | –
5 | > 1000 | > 1000 | > 100 | Cc1nccn1CCCCc1ccc(CC(=O)N[C@H](CO)C(=O)N[C@H](CCCCN)C(=O)N[C@H](CC2CCCCC2)C(=O)O)cc1 | – | > 100
6 | 0.38 | 840 | 33 | Cc1nccn1CCCCc1ccc(C(C)C(=O)N[C@@H](CO)C(=O)N[C@@H](CCCCN)C(=O)N[C@@H](CC2CCCCC2)C(=O)O)cc1 (stereo not given in full) | – | > 100
7 | 5.5 | – | – | NCCCC[C@H](NC(=O)[C@H](CO)NC(=O)CCCCCCCCn1ccnc1)C(=O)NCCC1CCCCC1 | – | –
8 | 0.147 | 28.2 | – | CCc1nccn1CCCCc1ccc(CC(=O)N[C@@H](CO)C(=O)N[C@@H](CCCCN)C(=O)NCCC2CCCCC2)cc1 | – | –
9 | 3 | – | – | NCCCC[C@H](NC(=O)[C@H](CO)NC(=O)CCCCCCCCCCCn1ccnc1)C(=O)NCCC1CCCCC1 | – | –
10 | 3 | – | – | NCCCC[C@H](NC(=O)[C@H](CO)NC(=O)CCCCCCCCCn1ccnc1)C(=O)NCCC1CCCCC1 | – | –
11 | 0.2 | > 100 | – | CC(C)c1nccn1CCCCc1ccc(CC(=O)N[C@@H](CO)C(=O)N[C@@H](CCCCN)C(=O)NCCC2CCCCC2)cc1 | – | –
12 | 0.081 | 22.7 | > 100 | COC(=O)[C@H](NC(=O)[C@H](CCCCN)NC(=O)[C@H](CO)NC(=O)Cc1ccc(CCCCn2ccnc2C)cc1)C(=O)O | – | > 100
13 | 1.2 | – | – | NCCCC[C@H](NC(=O)[C@H](CO)NC(=O)Cc1ccc(CCCCCn2ccnc2)cc1)C(=O)NCCC1CCCCC1 | – | –
14 | 2.05 | 142 | – | CC(C(=O)N[C@@H](CO)C(=O)N[C@@H](CCCCN)C(=O)NCCC1CCCCC1)c1ccc(CCCCn2ccnc2Cl)cc1 (stereo not given in full) | – | –
